Reference: US12336991B2, “Factor XIIA inhibitors” (UNIVERSITY OF LEEDS, priority 2018, dated 2025)

What was measured:
Assay type in all cases: biochemical
FXa = FXa (Homo sapiens, UniProt P00742); test: Determination of selectivity: FXa inhibition, chromogenic substrate S2765 assay; details: fold selectivity for FXIIa over FXa
Experimental: (§1) The activities of the compounds of the invention have been determined in vitro using the following assays protocols for the screening of activity of FXIIa and other proteases. Each of these assays were performed in a purified system employing the use of chromogenic assays in microplate plate wells. Chromogenic peptide substrates mimicking natural protein substrates are attached via an amide bond to a chromogenic group. Paranitroaniline (pNA) is released from the peptide following catalyses by the proteolytic enzyme; the absorbance increases and can be monitored at 405 nm.
(§2) All compounds were dissolved in 100% (v/v) DMSO to a stock concentration of 10 mM, the highest concentration of compound used in each assay is 500 μM. The final concentrations of DMSO were 5% (v/v) in 50 mM Tris 137 mM NaC pH 7.4. Where no test compound was added a final concentration of 5% DMSO was employed.
(§3) Determination of Selectivity
(§4) To determine selectivity of test compounds, these test compounds were assayed for inhibitory activity against other serine proteases including FXa and thrombin. Essentially compounds at increasing concentrations were incubated with each enzyme: FXa (5 nM) and thrombin (5 nM), for 10 mins at 37° C. followed the appropriate chromogenic substrate, S2765 ([…]), and GPR ([…]) respectively in 50 mM Tris, 137 mM NaCl, pH 7.4. Chromogenic substrates S2765 was from Chromogenix, and GPR from Bachem. Kinetic readings at 405 nm were monitored every 12 secs for a total duration of 3 hours at 37° C. Gradients of initial rates were determined and employed to calculate IC50 values. Values of IC50 were converted to Ki values based on the formula: Ki=IC50/(1+[Substrate]/Km)
(§5) Where [Substrate] denotes the concentration of substrate used in the assay and Km is the determined value of each enzyme with its own substrate.
(§6) The fold selectivity for FXIIa over thrombin for the compounds of the invention has been categorised based on the fold selectivity values, the categories being “+”, “++” and “+++”. The category “+” refers to fold selectivity values less than 10. The category “++” refers to a fold selectivity value of 10 to 100. The category “+++” refers to fold selectivity values greater than 100.
The fold selectivity for FXIIa over FXa for the compounds of the invention has been categorised based on the fold selectivity values, the categories being “o”, “oo” and “ooo”. The category “o” refers to fold selectivity values less than 10. The category “oo” refers to a fold selectivity value of 10 to 100. The category “ooo” refers to fold selectivity values greater than 100.

FXIIa = target: T1, FXIIa (Homo sapiens, UniProt P00748); test: Determination of Factor XIIa inhibition, chromogenic substrate S-2302 assay; details: human FXIIa alpha
T1 sequence (P00748 373-615 limits assumed): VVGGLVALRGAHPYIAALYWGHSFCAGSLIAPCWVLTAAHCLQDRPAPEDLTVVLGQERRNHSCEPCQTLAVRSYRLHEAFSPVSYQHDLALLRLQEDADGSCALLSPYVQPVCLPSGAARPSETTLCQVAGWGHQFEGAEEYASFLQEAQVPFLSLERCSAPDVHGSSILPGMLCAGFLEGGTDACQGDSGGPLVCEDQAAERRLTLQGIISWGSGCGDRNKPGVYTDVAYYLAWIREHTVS
T1 sequence (P00748 20-372 partner limits assumed): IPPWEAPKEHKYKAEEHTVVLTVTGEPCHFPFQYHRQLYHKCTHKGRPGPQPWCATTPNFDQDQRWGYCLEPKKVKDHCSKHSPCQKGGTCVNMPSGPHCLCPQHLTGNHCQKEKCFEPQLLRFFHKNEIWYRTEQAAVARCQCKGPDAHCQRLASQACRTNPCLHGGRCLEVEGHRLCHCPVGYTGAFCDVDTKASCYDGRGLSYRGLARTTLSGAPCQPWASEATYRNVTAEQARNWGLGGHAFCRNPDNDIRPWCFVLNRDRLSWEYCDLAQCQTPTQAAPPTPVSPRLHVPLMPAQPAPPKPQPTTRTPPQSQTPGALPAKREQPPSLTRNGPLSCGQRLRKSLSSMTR
Experimental: as §1, §2
Determination of Factor XIa Inhibition
Factor XIa activity was measured using a chromogenic substrate S-2302 (Chromogenix). Various concentrations of compound were incubated with 10 nM of FXIIa and incubated at 37° C. for 10 minutes in 50 mM Tris, 137 mM NaCl, pH 7.4, prior to the addition of a final concentration of 450 µM S-2302 chromogenic substrate. Kinetic readings at 405 nm were monitored every 12 secs for a total duration of 3 hours at 37° C. Gradients of initial rates were determined and employed to calculate IC50 values. Values of IC50 were converted to Ki values based on the formula: Ki=IC50/(1+[Substrate]/Km).
The activity of the compounds of the invention has been categorised based on the Ki values, the categories being “*”, “**” and “***”. […] The category “**” refers to compounds with a Ki value of 0.2 μM to 2 μM.

thrombin = target: T2, thrombin (Homo sapiens, UniProt P00734); test: Determination of selectivity: thrombin inhibition, chromogenic substrate GPR assay; details: fold selectivity for FXIIa over thrombin
T2 construct: FXa (5 nM) and thrombin (5 nM)
Experimental: as §1, §2, §3, §4, §5, §6

FXa, sequence (P00742 235-488 limits assumed): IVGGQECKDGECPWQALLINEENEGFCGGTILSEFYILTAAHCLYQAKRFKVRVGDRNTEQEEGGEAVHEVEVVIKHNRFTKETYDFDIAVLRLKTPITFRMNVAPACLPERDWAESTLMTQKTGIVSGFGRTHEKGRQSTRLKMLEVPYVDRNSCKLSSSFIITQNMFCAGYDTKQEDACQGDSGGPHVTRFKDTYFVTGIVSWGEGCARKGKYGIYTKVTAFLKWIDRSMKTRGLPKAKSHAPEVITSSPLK
FXa, sequence (P00742 41-179 partner limits assumed): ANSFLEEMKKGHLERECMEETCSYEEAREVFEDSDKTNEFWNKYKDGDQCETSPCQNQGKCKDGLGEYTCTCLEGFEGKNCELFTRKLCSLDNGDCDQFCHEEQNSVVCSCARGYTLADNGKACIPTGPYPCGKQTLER

Row | SMILES | FXa (human)/FXIIa alpha (human) (FXa) | Ki (FXIIa) | Thrombin (human)/FXIIa alpha (human) (thrombin)
1 | Cn1nnc2cc(CNC(=O)[C@@H]3C[C@H](NCCc4ccccc4)CN3C(=O)[C@H](N)CCc3ccccc3)ccc21 [Example M05205] | ∘∘ | > 2 µM | ++ (fold selectivity value of 10 to 100)
2 | COc1ccc(C[C@@H]2C[C@@H](C(=O)NCc3ccc4c(c3)nnn4C)N(C(=O)[C@H]3C[C@@H](C(=O)N4CCCC4)CCN3)C2)cc1 [Example M05490] | ∘∘∘ | < 0.2 µM | +++ (fold selectivity values greater than 100)
3 | CN(C1CCCCC1)C1C[C@@H](C(=O)NCc2ccc3c(c2)nnn3C)N(C(=O)[C@H](N)CCc2ccccc2)C1 (stereo partly drawn) [Example M05242] | ∘∘ | > 2 µM | ++ (fold selectivity value of 10 to 100)
4 | COc1cc(CNC(=O)[C@@H]2CCCN2C(=O)[C@H](N)CCc2ccccc2)cnc1CN [Example M05053] | ∘∘ | > 2 µM | + (fold selectivity values less than 10)
5 | Cn1nnc2cc(CNC(=O)[C@@H]3C[C@H](C(F)(F)F)CN3C(=O)[C@H](N)CCc3ccccc3)ccc21 [Example M05102] | ∘∘ | > 2 µM | ++ (fold selectivity value of 10 to 100)
6 | Cn1nnc2cc(CNC(=O)[C@@H]3CCCN3C(=O)[C@H](N)CCC(=O)N3CCCC3)ccc21 [Example M05308] | ∘∘ | > 2 µM | ++ (fold selectivity value of 10 to 100)
7 | CN(C)[C@H](CCC(=O)N1CCCC1)C(=O)N1C[C@H](Cc2cccnc2)C[C@H]1C(=O)NCc1ccc2c(cnn2C)c1 [Example M05223] | ∘∘∘ | 0.2 to 2 µM | +++ (fold selectivity values greater than 100)
8 | COc1ccc(C[C@@H]2C[C@@H](C(=O)NCc3cc4cccnc4[nH]3)N(C(=O)[C@H](N)CCC(=O)N3CCCC3)C2)cc1 [Example M05401] | ∘∘ | > 2 µM | ++ (fold selectivity value of 10 to 100)
9 | COc1ccc(C[C@@H]2C[C@@H](C(=O)NCc3ccc4c(c3)nnn4C)N(C(=O)[C@H]3CC(c4ccc[nH]c4=O)CN3)C2)cc1 (stereo partly drawn) [Example M05419] | ∘∘∘ | < 0.2 µM | +++ (fold selectivity values greater than 100)
10 | COc1ccc(C[C@@H]2C[C@@H](C(=O)NCc3ccc4c(c3)nnn4C)N(C(=O)[C@H](N)CCC(=O)N3CCCC3C)C2)cc1 (stereo partly drawn) [Example M05391] | ∘∘∘ | < 0.2 µM | +++ (fold selectivity values greater than 100)
11 | COc1ccc(C[C@@H]2C[C@@H](C(=O)NCc3ccc4c(c3)nnn4C)N(C(=O)[C@H]3C[C@@H](c4ccccc4)CN3)C2)cc1Cl [Example M05339] | ∘∘∘ | 0.2 to 2 µM | +++ (fold selectivity values greater than 100)
12 | Cn1nnc2cc(CNC(=O)[C@@H]3C[C@@H](Cc4ccncc4)CN3C(=O)[C@@H](CCC(=O)N3CCCC3)NCC(F)(F)F)ccc21 [Example M05271] | ∘∘ | > 2 µM | ++ (fold selectivity value of 10 to 100)
13 | Nc1cc(CNC(=O)[C@@H]2C[C@H](NC(=O)c3ccccc3)CN2C(=O)[C@H](N)CCc2ccccc2)ccn1 [Example M05142] | ∘∘ | 0.2 to 2 µM | + (fold selectivity values less than 10)
14 | Cn1nnc2cc(CNC(=O)[C@@H]3C[C@@H](Cc4ccncc4)CN3C(=O)[C@@H](CCC(=O)N3CCCC3)NCCC(F)(F)F)ccc21 [Example M05262] | ∘∘ | > 2 µM | ++ (fold selectivity value of 10 to 100)
15 | COc1ccc(C[C@@H]2C[C@@H](C(=O)NCc3ccc4c(c3)nnn4C)N(C(=O)[C@H](N)CCC(=O)N3CCCC3)C2)cc1 [Example M05272] | ∘∘∘ | < 0.2 µM | +++ (fold selectivity values greater than 100)
16 | COc1ccc(C[C@@H]2C[C@@H](C(=O)NCc3ccc4c(c3)nnn4C)N(C(=O)[C@H]3CC(c4ccnn4C)CN3)C2)cc1 (stereo partly drawn) [Example M05376] | ∘∘ | > 2 µM | ++ (fold selectivity value of 10 to 100)
17 | Cn1nnc2cc(CNC(=O)[C@@H]3CC(Cc4ccc(OC(F)(F)F)cc4)CN3C(=O)[C@H](N)CCC(=O)N3CCCC3)ccc21 (stereo partly drawn) [Example M05306, (S)-1-((R)-2-Amino-5-oxo-5-pyrrolidin-1-yl-pentanoyl)-4-(4-trifluoromethoxy-benzyl)-pyrrolidine-2-carboxylicacid (1-methyl-1H-benzotriazol-5-ylmethyl)-amide] | ∘∘∘ | < 0.2 µM | +++ (fold selectivity values greater than 100)
18 | COc1ccc(C[C@@H]2C[C@@H](C(=O)NCc3ccc4c(c3)nnn4C)N(C(=O)[C@H]3CC(c4cnccn4)CN3)C2)cc1 (stereo partly drawn) [Example M05459] | ∘∘∘ | 0.2 to 2 µM | +++ (fold selectivity values greater than 100)
19 | Cn1nnc2cc(CNC(=O)[C@@H]3C[C@H](NC(=O)CCc4ccccc4)CN3C(=O)[C@H](N)CCc3ccccc3)ccc21 [Example M05195] | ∘∘ | > 2 µM | ++ (fold selectivity value of 10 to 100)
20 | Cn1ncc2cc(CNC(=O)[C@@H]3C[C@@H](Cc4cccnc4)CN3C(=O)[C@H](N)CCC(=O)N3CCCC3)ccc21 [Example M05228] | ∘∘∘ | 0.2 to 2 µM | +++ (fold selectivity values greater than 100)

Results, then the compound that gave them:

Row | FXa (human)/FXIIa alpha (human) (FXa) | Ki (FXIIa) | Thrombin (human)/FXIIa alpha (human) (thrombin) | SMILES
21 | ∘∘∘ | 0.2 to 2 µM | ++ (fold selectivity value of 10 to 100) | COc1cc(CNC(=O)[C@@H]2C[C@H](c3ccccc3)CN2C(=O)[C@H](N)CCc2ccccc2)ccc1CN [Example M05068]
22 | ∘∘ | 0.2 to 2 µM | ++ (fold selectivity value of 10 to 100) | COc1ccc(C[C@@H]2C[C@@H](C(=O)NCc3cccs3)N(C(=O)[C@H](N)CCC(=O)N3CCCC3)C2)cc1 [Example M00972]
23 | ∘∘∘ | 0.2 to 2 µM | ++ (fold selectivity value of 10 to 100) | Cn1nnc2cc(CNC(=O)[C@@H]3CC(Cc4ccnc(F)c4)CN3C(=O)[C@H](N)CCC(=O)N3CCCC3)ccc21 (stereo partly drawn) [Example M05314]
